According to ChEMBL document CHEMBL5331112, “Recent Advances in Pro-PROTAC Development to Address On-Target Off-Tumor Toxicity” (J Med Chem, 2023):
One block for each compound: values may come before it.

How the values were obtained:
[1] = Cytotoxicity against human HFF-1 cells assessed as cell growth inhibition; type: toxicity, cell-based
SU-DHL-1 = experiment: Anticancer activity against human SU-DHL-1 cells assessed as cell growth inhibition; type: functional, cell-based
[2] = molecular target: von Hippel-Lindau disease tumor suppressor/Bromodomain-containing protein 4 (Homo sapiens, UniProt O60885+P40337); experiment: PROTAC activity at VHL/BRD4 in human MCF7 cells assessed as degradation of BRD4 incubated by Western blot assay; type: cell-based
von Hippel-Lindau disease tumor suppressor/Bromodomain-containing protein 4, sequence (P40337 whole entry, looked up, other chains not shown): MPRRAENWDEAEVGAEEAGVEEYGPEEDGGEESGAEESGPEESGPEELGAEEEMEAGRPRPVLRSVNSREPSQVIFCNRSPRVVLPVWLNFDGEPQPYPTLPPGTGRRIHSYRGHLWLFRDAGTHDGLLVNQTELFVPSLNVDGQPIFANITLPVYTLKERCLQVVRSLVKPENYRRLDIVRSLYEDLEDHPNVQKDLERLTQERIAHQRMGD

MCF7 [3] = experiment: Anticancer activity against human MCF7 cells xenografted in mouse assessed as cell growth inhibition […] relative to control; type: functional
MCF7 [4] = experiment: Anticancer activity against human MCF7 cells assessed as cell growth inhibition CCK8 assay; type: functional, cell-based

Structure (SMILES): Cc1ncsc1-c1ccc([C@H](C)NC(=O)[C@@H]2C[C@@H](OC(=O)CCCCn3cc(CNC(=O)CC[C@H](NC(=O)c4ccc(NCc5cnc6nc(N)[nH]c(=O)c6n5)cc4)C(=O)O)nn3)CN2C(=O)[C@@H](NC(=O)COCCCOCCNC(=O)C[C@@H]2N=C(c3ccc(Cl)cc3)c3c(sc(C)c3C)-n3c(C)nnc32)C(C)(C)C)cc1
IC50 [1]: > 10000 nM

IC50 (SU-DHL-1): 200 nM
Structure (SMILES): Cc1cc(Nc2ncc(Cl)c(Nc3ccccc3S(=O)(=O)C(C)C)n2)c(OC(C)C)cc1C1CCN(C(=O)CCCC(=O)N[C@H](C(=O)N2C[C@H](OC(=O)CCCCn3cc(CNC(=O)CC[C@H](NC(=O)c4ccc(NCc5cnc6nc(N)[nH]c(=O)c6n5)cc4)C(=O)O)nn3)C[C@H]2C(=O)N[C@@H](C)c2ccc(-c3scnc3C)cc2)C(C)(C)C)CC1

DC50 [2]: 22 nM
IC50 (MCF7 [4]): 56.9 nM
Structure (SMILES): CNC(=O)CCC(=O)OCCSSCCOC(=O)O[C@@H]1C[C@@H](C(=O)N[C@@H](C)c2ccc(-c3scnc3C)cc2)N(C(=O)[C@H](NC(=O)COCCOCCOCCNC(=O)C[C@@H]2N=C(c3ccc(Cl)cc3)c3c(sc(C)c3C)-n3c(C)nnc32)C(C)(C)C)C1
TGI (MCF7 [3]): 77.5%
